Experimental data published in the supplement of paper PMC10307832.

Key:
Test in all cases: relative viability (nuclei count vs DMSO), 5 days (fraction); higher = more cells survive
Linsitinib + Luminespib = compound: C[C@]1(O)C[C@@H](c2nc(-c3ccc4ccc(-c5ccccc5)nc4c3)c3c(N)nccn32)C1 [Linsitinib] + CCNC(=O)c1noc(-c2cc(C(C)C)c(O)cc2O)c1-c1ccc(CN2CCOCC2)cc1 [Luminespib] (partner 0.01 µM)
How it was run: (§1)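 Five library-drug doses in √10 steps were combined with a fixed anchor-drug dose, or a single drug was given alone, by pin tool to lung cancer cell lines in 1536-well plates the day after seeding. Nuclei were stained and counted after 5 days. Relative viability is the nuclei count in treated wells over that in vehicle wells, taken as the median of duplicate plates.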

Linsitinib + AZD7762 = compound: C[C@]1(O)C[C@@H](c2nc(-c3ccc4ccc(-c5ccccc5)nc4c3)c3c(N)nccn32)C1 [Linsitinib] + NC(=O)Nc1cc(-c2cccc(F)c2)sc1C(=O)N[C@H]1CCCNC1 [AZD7762] (partner 0.2 µM)
How it was run: as §1

Ispinesib + Lapatinib = compound: Cc1ccc(C(=O)N(CCCN)[C@@H](c2nc3cc(Cl)ccc3c(=O)n2Cc2ccccc2)C(C)C)cc1 [Ispinesib] + CS(=O)(=O)CCNCc1ccc(-c2ccc3ncnc(Nc4ccc(OCc5cccc(F)c5)c(Cl)c4)c3c2)o1 [Lapatinib] (partner 2 µM)
How it was run: as §1

Ispinesib + Bortezomib = compound: Cc1ccc(C(=O)N(CCCN)[C@@H](c2nc3cc(Cl)ccc3c(=O)n2Cc2ccccc2)C(C)C)cc1 [Ispinesib] + CC(C)C[C@H](NC(=O)[C@H](Cc1ccccc1)NC(=O)c1cnccn1)B(O)O [Bortezomib] (partner 0.002 µM)
How it was run: as §1

**Q.** For LK-2, which relative viability (Linsitinib + Luminespib; first compound 0.01 µM) is on record?
**A.** 0.173

**Q.** What about the relative viability (Linsitinib + Luminespib; first compound 0.03162 µM) of the same cell line?
**A.** 0.152

**Q.** And the relative viability (Linsitinib + Luminespib; first compound 0.1 µM)?
**A.** 0.187

**Q.** And the relative viability (Linsitinib + Luminespib; first compound 0.3162 µM)?
**A.** 0.192

**Q.** What about the relative viability (Linsitinib + Luminespib; first compound 1 µM) of the same cell line?
**A.** 0.166

**Q.** And the relative viability (Linsitinib + AZD7762; first compound 0.01 µM)?
**A.** 0.295

**Q.** What about the relative viability (Linsitinib + AZD7762; first compound 0.03162 µM) of the same cell line?
**A.** 0.482

**Q.** What about the relative viability (Linsitinib + AZD7762; first compound 0.1 µM) of the same cell line?
**A.** 0.245

**Q.** And the relative viability (Linsitinib + AZD7762; first compound 0.3162 µM)?
**A.** 0.179

**Q.** And the relative viability (Linsitinib + AZD7762; first compound 1 µM)?
**A.** 0.154

**Q.** What about the relative viability (Ispinesib + Lapatinib; first compound 0.001 µM) of the same cell line?
**A.** 1.07

**Q.** What about the relative viability (Ispinesib + Lapatinib; first compound 0.003162 µM) of the same cell line?
**A.** 1.07

**Q.** And the relative viability (Ispinesib + Lapatinib; first compound 0.01 µM)?
**A.** 0.908

**Q.** And the relative viability (Ispinesib + Lapatinib; first compound 0.03162 µM)?
**A.** 0.681

**Q.** What about the relative viability (Ispinesib + Lapatinib; first compound 0.1 µM) of the same cell line?
**A.** 0.313

**Q.** Which relative viability (Ispinesib + Bortezomib; first compound 0.001 µM) does the source give for NCI-H1299 here?
**A.** 1.02

**Q.** What about the relative viability (Ispinesib + Bortezomib; first compound 0.003162 µM) of the same cell line?
**A.** 1.06

**Q.** And the relative viability (Ispinesib + Bortezomib; first compound 0.01 µM)?
**A.** 1.07

**Q.** And the relative viability (Ispinesib + Bortezomib; first compound 0.03162 µM)?
**A.** 1.01

**Q.** What about the relative viability (Ispinesib + Bortezomib; first compound 0.1 µM) of the same cell line?
**A.** 0.671

**Q.** And the relative viability (Ispinesib + Lapatinib; first compound 0.001 µM)?
**A.** 1.02

**Q.** What about the relative viability (Ispinesib + Lapatinib; first compound 0.003162 µM) of the same cell line?
**A.** 0.988

**Q.** What about the relative viability (Ispinesib + Lapatinib; first compound 0.01 µM) of the same cell line?
**A.** 0.979

**Q.** What about the relative viability (Ispinesib + Lapatinib; first compound 0.03162 µM) of the same cell line?
**A.** 0.813

**Q.** And the relative viability (Ispinesib + Lapatinib; first compound 0.1 µM)?
**A.** 0.3

**Q.** How did the relative viability (Linsitinib + Luminespib; first compound 0.01 µM) turn out when NCI-H358 was run?
**A.** 0.365

**Q.** What about the relative viability (Linsitinib + Luminespib; first compound 0.03162 µM) of the same cell line?
**A.** 0.367

**Q.** And the relative viability (Linsitinib + Luminespib; first compound 0.1 µM)?
**A.** 0.299

**Q.** And the relative viability (Linsitinib + Luminespib; first compound 0.3162 µM)?
**A.** 0.333

**Q.** And the relative viability (Linsitinib + Luminespib; first compound 1 µM)?
**A.** 0.194

**Q.** And the relative viability (Linsitinib + AZD7762; first compound 0.01 µM)?
**A.** 0.668

**Q.** What about the relative viability (Linsitinib + AZD7762; first compound 0.03162 µM) of the same cell line?
**A.** 0.473

**Q.** And the relative viability (Linsitinib + AZD7762; first compound 0.1 µM)?
**A.** 0.563

**Q.** What about the relative viability (Linsitinib + AZD7762; first compound 0.3162 µM) of the same cell line?
**A.** 0.366

**Q.** And the relative viability (Linsitinib + AZD7762; first compound 1 µM)?
**A.** 0.321

**Q.** What about the relative viability (Ispinesib + Lapatinib; first compound 0.001 µM) of the same cell line?
**A.** 0.475

**Q.** And the relative viability (Ispinesib + Lapatinib; first compound 0.003162 µM)?
**A.** 0.421

**Q.** And the relative viability (Ispinesib + Lapatinib; first compound 0.01 µM)?
**A.** 0.473

**Q.** What about the relative viability (Ispinesib + Lapatinib; first compound 0.03162 µM) of the same cell line?
**A.** 0.345

**Q.** What about the relative viability (Ispinesib + Lapatinib; first compound 0.1 µM) of the same cell line?
**A.** 0.215

**Q.** How did the relative viability (Ispinesib + Bortezomib; first compound 0.001 µM) turn out when HCC-366 was run?
**A.** 1.29

**Q.** And the relative viability (Ispinesib + Bortezomib; first compound 0.003162 µM)?
**A.** 1.1

**Q.** And the relative viability (Ispinesib + Bortezomib; first compound 0.01 µM)?
**A.** 1.43

**Q.** What about the relative viability (Ispinesib + Bortezomib; first compound 0.03162 µM) of the same cell line?
**A.** 0.323

**Q.** And the relative viability (Ispinesib + Bortezomib; first compound 0.1 µM)?
**A.** 0.0344

**Q.** And the relative viability (Linsitinib + AZD7762; first compound 0.01 µM)?
**A.** 0.261

**Q.** What about the relative viability (Linsitinib + AZD7762; first compound 0.03162 µM) of the same cell line?
**A.** 0.228

**Q.** And the relative viability (Linsitinib + AZD7762; first compound 0.1 µM)?
**A.** 0.301

**Q.** What about the relative viability (Linsitinib + AZD7762; first compound 0.3162 µM) of the same cell line?
**A.** 0.361

**Q.** And the relative viability (Linsitinib + AZD7762; first compound 1 µM)?
**A.** 0.12

**Q.** What about the relative viability (Ispinesib + Lapatinib; first compound 0.001 µM) of the same cell line?
**A.** 1.03

**Q.** And the relative viability (Ispinesib + Lapatinib; first compound 0.003162 µM)?
**A.** 1.12

**Q.** And the relative viability (Ispinesib + Lapatinib; first compound 0.01 µM)?
**A.** 1.33

**Q.** What about the relative viability (Ispinesib + Lapatinib; first compound 0.03162 µM) of the same cell line?
**A.** 0.0151

**Q.** And the relative viability (Ispinesib + Lapatinib; first compound 0.1 µM)?
**A.** 0.0387

**Q.** How did the relative viability (Ispinesib + Bortezomib; first compound 0.001 µM) turn out when LCLC-103H was run?
**A.** 0.96

**Q.** What about the relative viability (Ispinesib + Bortezomib; first compound 0.003162 µM) of the same cell line?
**A.** 1.27

**Q.** What about the relative viability (Ispinesib + Bortezomib; first compound 0.01 µM) of the same cell line?
**A.** 1.19

**Q.** What about the relative viability (Ispinesib + Bortezomib; first compound 0.03162 µM) of the same cell line?
**A.** 0.813

**Q.** What about the relative viability (Ispinesib + Bortezomib; first compound 0.1 µM) of the same cell line?
**A.** 0.447

**Q.** And the relative viability (Linsitinib + Luminespib; first compound 0.01 µM)?
**A.** 1.06

**Q.** And the relative viability (Linsitinib + Luminespib; first compound 0.03162 µM)?
**A.** 0.965

**Q.** And the relative viability (Linsitinib + Luminespib; first compound 0.1 µM)?
**A.** 0.918

**Q.** And the relative viability (Linsitinib + Luminespib; first compound 0.3162 µM)?
**A.** 0.813

**Q.** What about the relative viability (Linsitinib + Luminespib; first compound 1 µM) of the same cell line?
**A.** 0.838

**Q.** What about the relative viability (Linsitinib + AZD7762; first compound 0.01 µM) of the same cell line?
**A.** 0.785

**Q.** What about the relative viability (Linsitinib + AZD7762; first compound 0.03162 µM) of the same cell line?
**A.** 0.721

**Q.** And the relative viability (Linsitinib + AZD7762; first compound 0.1 µM)?
**A.** 0.84

**Q.** And the relative viability (Linsitinib + AZD7762; first compound 0.3162 µM)?
**A.** 0.9

**Q.** And the relative viability (Linsitinib + AZD7762; first compound 1 µM)?
**A.** 0.634

**Q.** Calu-6 was tested. Which relative viability (Ispinesib + Bortezomib; first compound 0.001 µM) did it give?
**A.** 0.9

**Q.** What about the relative viability (Ispinesib + Bortezomib; first compound 0.003162 µM) of the same cell line?
**A.** 0.725

**Q.** What about the relative viability (Ispinesib + Bortezomib; first compound 0.01 µM) of the same cell line?
**A.** 0.24

**Q.** And the relative viability (Ispinesib + Bortezomib; first compound 0.03162 µM)?
**A.** 0.137

**Q.** And the relative viability (Ispinesib + Bortezomib; first compound 0.1 µM)?
**A.** 0.202

**Q.** What about the relative viability (Ispinesib + Lapatinib; first compound 0.001 µM) of the same cell line?
**A.** 1.24

**Q.** And the relative viability (Ispinesib + Lapatinib; first compound 0.003162 µM)?
**A.** 0.955

**Q.** And the relative viability (Ispinesib + Lapatinib; first compound 0.01 µM)?
**A.** 0.526

**Q.** And the relative viability (Ispinesib + Lapatinib; first compound 0.03162 µM)?
**A.** 0.217

**Q.** And the relative viability (Ispinesib + Lapatinib; first compound 0.1 µM)?
**A.** 0.256
